Experimental findings from paper PMC2688680, “Identification, expression and characterisation of a Babesia bovis hexose transporter” (Molecular and Biochemical Parasitology, 2008) are described below.

For data set [1], the target named is T1, B. bovis hexose transporter 1 (BboHT1) (Babesia bovis, UniProt B0LKY8).
T1 construct: full-length, 472 amino acid residues, Israel isolate, expressed in Xenopus laevis oocytes
Kind of data set: competition with […]D-glucose uptake in Xenopus oocytes at […] ([…] reduction). It is filed as cell-based.

The target in data set [2] is T1, B. bovis hexose transporter 1 (BboHT1). Kind of data set: inhibition of […]D-glucose uptake in Xenopus oocytes expressing BboHT1. The data set is classed as cell-based.
For data set [3] the target is unchanged. Kind of data set: radiotracer D-fructose uptake in Xenopus oocytes versus water-injected controls. The data set is classed as cell-based.
Substrate in data set [4]: OC[C@H]1OC(O)[C@H](O)[C@@H](O)[C@@H]1O
Description: radiotracer D-glucose influx kinetics in Xenopus oocytes (Km). The following applies: hydroxyl positions at O-4 and O-6 important for ligand binding. It is filed as cell-based, Babesia bovis.

In the case of `OC[C@H]1OC(O)C[C@@H](O)[C@@H]1O` (stereo partly drawn) [2-DOG, 2-deoxy-D-glucose], the “competition with [14C]D-glucose uptake in Xenopus oocytes at 10 mM (>50% reducti)” value in data set [1] was 1-Deoxy-D-glucose, 2-deoxy-D-glucose, D-mannose (the 2-epimer of glucose), 3-deoxy-D-glucose, and 3-O-methyl-D-glucose all reduced D-glucose uptake via BboHT1.
`OC[C@H]1OC[C@H](O)[C@@H](O)[C@@H]1O` [1-DOG, 1-deoxy-D-glucose]: the “competition with [14C]D-glucose uptake in Xenopus oocytes at 10 mM (>50% reducti)” value in data set [1] is 1-Deoxy-D-glucose, 2-deoxy-D-glucose, D-mannose (the 2-epimer of glucose), 3-deoxy-D-glucose, and 3-O-methyl-D-glucose all reduced D-glucose uptake via BboHT1.
Turning to `C=CCCCCCCCCCO[C@H]1[C@H](O)[C@@H](CO)OC(O)[C@@H]1O` (stereo partly drawn) [compound 3361, 3-O-(undec-10-en)-yl-D-glucose], in data set [2], the affinity, expressed as Ki, was 4.1 ± 0.9 µM.
`OC[C@H]1OC(O)(CO)[C@@H](O)[C@@H]1O` (stereo partly drawn) [D-fructose]: in data set [3], the “radiotracer D-fructose uptake in Xenopus oocytes versus water-injected controls” value is “D-Fructose uptake also increased in oocytes expressing BboHT1 when compared with uptake in water-injected controls”.

B1: B. bovis hexose transporter 1 (BboHT1) (Babesia bovis) (protein)
chain: MRSYFVYALALGALVAFNFGLNTVSFVASREFAVMDLGWCAGQDKLYECSRASTYSDIIAAGTFIGGAVGSLLIGYFAKFGRRKGMLIIHIINVIGSCMSTSASCFTMFLLGRLIAGVSVGASGVVAIYLSEICTNESRGKFGIVYPLFICIGQFLMVAWQLLHGRILGADNKVVTMDDLKTFDKFVWRMAQFWPVVFSIIAVVIMVFIVTDDTPYVLLNEGKEEEARSVISKLHGEENADAITAELKADIEAQKANSDKLSLLEALKVAQYRKVIFICCGLGIVQQFSGINIFVANASTLFISIMGRTVIANVMGLVGILCLMVTMISLSFFIEKFGRKTLLLAGIFVSSVFMVPAVIIKLAAGKDAKWAEYIMVTGCMGFMVGFAIGLGGVMWLYLAEAMGAEYKDAGFGLATCANWLFAAIVVMTSGMLIKFNENFTYALYAGFGVLGFVYVALLIKETKGIPLGQAYA
notes: full-length, 472 amino acid residues, Israel isolate, expressed in Xenopus laevis oocytes
Regarding B1, the Michaelis constant (Km) in data set [4] was 840 ± 540 µM.
